Biological target: T1, EPHB4 (Homo sapiens, UniProt P54760)
T1 construct: purchased Thermo Fisher Scientific (Life Technologies) SelectScreen
Assay: SelectScreen Z'LYTE
Assay type: biochemical
Outline: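 Percent values come from Thermo SelectScreen profiling of NU5455, combining activity and binding assays. CSF1R was run in Z'LYTE format at Km app ATP, and CAMK1 in Adapta format with ATP listed at 10.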

T1 sequence (P54760 16-987): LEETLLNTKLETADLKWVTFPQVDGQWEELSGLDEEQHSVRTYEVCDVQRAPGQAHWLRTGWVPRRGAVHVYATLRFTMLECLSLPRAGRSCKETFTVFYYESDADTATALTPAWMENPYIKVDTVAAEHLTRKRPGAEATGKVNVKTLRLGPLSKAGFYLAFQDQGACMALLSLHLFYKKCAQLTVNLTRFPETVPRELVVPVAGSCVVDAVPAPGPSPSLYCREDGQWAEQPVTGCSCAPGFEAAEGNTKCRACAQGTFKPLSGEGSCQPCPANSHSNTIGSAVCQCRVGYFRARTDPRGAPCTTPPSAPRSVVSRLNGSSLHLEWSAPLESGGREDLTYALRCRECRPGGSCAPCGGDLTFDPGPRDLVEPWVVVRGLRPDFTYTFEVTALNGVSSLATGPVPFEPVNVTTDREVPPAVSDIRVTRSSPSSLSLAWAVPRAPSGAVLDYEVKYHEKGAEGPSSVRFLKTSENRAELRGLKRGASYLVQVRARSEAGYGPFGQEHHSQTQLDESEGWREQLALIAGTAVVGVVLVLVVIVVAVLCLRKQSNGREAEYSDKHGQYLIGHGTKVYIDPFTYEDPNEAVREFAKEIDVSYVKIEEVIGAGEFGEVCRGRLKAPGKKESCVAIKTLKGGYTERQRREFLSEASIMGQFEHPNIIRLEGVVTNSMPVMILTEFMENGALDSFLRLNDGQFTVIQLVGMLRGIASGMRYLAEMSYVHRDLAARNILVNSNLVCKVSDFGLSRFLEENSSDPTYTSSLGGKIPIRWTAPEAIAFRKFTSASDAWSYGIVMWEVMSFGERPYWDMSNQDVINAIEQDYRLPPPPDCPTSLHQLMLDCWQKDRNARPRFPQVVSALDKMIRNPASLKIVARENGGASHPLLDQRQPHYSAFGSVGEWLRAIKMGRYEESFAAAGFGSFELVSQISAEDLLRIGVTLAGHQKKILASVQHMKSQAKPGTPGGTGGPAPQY

With `CN(C(=O)CN1CCOCC1)c1ccc2sc3c(-c4cccc5c(=O)cc(N6CC7CCC(C6)O7)oc45)cccc3c2c1` [NU5455] the inhibition at 1 µM was -5.3%.

Reference: PMC6934184, “Selective DNA-PKcs inhibition extends the therapeutic index of localized radiotherapy and chemotherapy” (The Journal of Clinical Investigation, 2019)
